According to patent publication US7786042B2, “Fluridone as an anti-inflammatory agent” (Universita' Degli Studi Di Genova, priority 2005, dated 2010):
Entries after “also recorded” stand apart in the source; their conditions may differ.

Tests used:
[1] = system: human granulocytes; assay: ROS production by granulocytes (cytochrome c assay); format: cell-based; details: ABA 0.2-20 μM
Procedure: Granulocytes were resuspended at 5×10^6/ml in HBSS and 225 μl of the cell suspension were added to 50 μl of 0.2 mM cytochrome c and were incubated for 30 min at 37° C. in the absence (control) or in the presence of 250 nM or 20 μM ABA, the latter concentration without or with 1 mM EDTA, 20 mM nicotinamide or 0.1 mM 8-Br-cADPR. The amount of ROS (panel A) or of NO (panel B) in the cell supernatant was measured as described in Materials and Methods. The results are expressed as the production relative to control cells, not stimulated with ABA, and are the mean ±SD from 5 experiments.
Release of superoxide (O2^−) by human granulocytes was quantified by a spectrophotometric assay of cytochrome c reduction (Cohen, J Clin Invest 1978). Granulocytes were resuspended in HBSS (at 5×10^6 cells/ml) and 225 μl of the cell suspension was incubated for 30 min at 37° C. with 50 μl cytochrome c (0.2 mM) in the absence (control) or in the presence of ABA at different concentrations. Then, cells were centrifuged at 5,000×g for 15 s and the absorbance of the supernatants was recorded at 550 nm (λmax for reduced cytocrome c).

[2] = system: human granulocytes; assay: GDP-ribosyl cyclase activity in granulocytes; format: cell-based; details: ABA 0.2 to 200 μM; detectable after 5 min
Procedure: Panel A. GDP-ribosyl cyclase activity has been measured in granulocytes in the presence of increasing ABA concentrations, added together with the cyclase substrate NGD^+. The results are expressed as cyclase activity relative to control cells, incubated in the absence of ABA (mean ±SD from 5 determinations). Panel B. The intracellular concentration of cADPR was measured by enzymatic cycling assay (Materials and Methods) on granulcoytes incubated with 20 μM ABA for the periods of time indicated. The results are expressed as [cADPR]i relative to control cells, incubated without ABA (n=2).
Granulocytes were resuspended in HBSS (60×10^6/ml) and cyclase activity was measured by adding the substrate NGD^+ (a NAD^+ analogue, which product cGDPR is fluorescent) at the concentration of 0.2 mM together with increasing concentrations of ABA. At various times (0, 5, 15, 60 and 120 min) 100 μl-aliquots were withdrawn and centrifuged (5,000×g for 15 s) and supernatants were deproteinized with 2.5% (v/v) trichloroacetic acid. The cGDPR content was estimated by HPLC analysis, as described in (Guida, FEBS 1995).

[3] = system: human granulocytes; assay: Chemotaxis and chemokinesis of granulocytes; format: cell-based; details: ABA 0.2-20 μM
Procedure: Assays were performed using 96-well ChemoTx system microplates with a 3-μm pore size polycarbonate filter (NeuroProbe Inc., Gaithersburg, USA). Cells (granulocytes or murine microglia) were resuspended at 10^7/ml in HBSS, PBS and 5% albumin, 39:16:1 (chemotaxis buffer, CB). In order to evaluate the chemoattractant effect of ABA, hormone concentrations ranging from 50 nM to 20 μM were added in CB in the bottom wells and 25 μl cell suspensions were placed on top of the filter. To evaluate a possible stimulatory effect of ABA on spontaneous cell movements (chemokinesis), cells were pre-incubated with or without 20 μM ABA, then washed and placed on top of the filter, in contact with CB. Plates were incubated at 37° C. for 60 min and transmigrated cells were recovered and quantified by fluorimetric assay with Cytox Green. The number of transmigrated cells was calculated by comparison of the measured fluorescence with that of a standard curve, obtained by directly placing a serial dilution of cells in the bottom wells. The results of the chemotaxis experiments are expressed as “chemotaxis index” (CI): CI=number of cells migrated towards chemoattractant/number of cells migrated towards CB

[4] = system: laboratory animals (mice, rats, dogs, fish and birds); details: even at high concentrations; cited from earlier work
[5] = system: murine microglial cell line N9; assay: ABA content in murine microglia N9 by HPLC-MS; format: cell-based; details: N9 cells; fluridone 50 μM together with LPS
Procedure: Cells from the murine microglial cell line N9 were pre-incubated with or without 50 μM fluridone for 2 hours and then stimulated with 100 ng/ml lipopolysaccharide (LPS) for 24 hours. The ABA content was measured by HPLC-MS (see Materials and Methods) and was compared with that of untreated cells (control). The results are the mean from 2 experiments.
N9 cells were seeded (25×10^6/flask) in IMDM medium containing fetal calf serum, incubated for 3 h at 37° C. with or without 50 μM fluridone and then incubated for 3 days in the absence or in the presence of 200 ng/ml lipopolysaccharide (LPS). Cells were then recovered, washed in phosphate-buffered saline isotonic solution at pH 7.4 (PBS), resuspended in 0.5 ml water and sonicated. […] A small aliquot of the extract was used to determine radioactivity (with a β-counter), allowing the calculation of the percentage of ABA recovery after-extraction. The rest of the extract was analyzed on an Agilent 1100 capillary chromatography system, with a diode array detector, equipped with a Waters Atlantis™ dC18 150×1 mm column, particle size 3 μm, coupled to an Agilent 1100 series LC/MSD Trap mass spectrometer, equipped with an orthogonal geometry electrospray source and ion trap analyser. […]

## CC1=CC(=O)CC(C)(C)[C@@]1(O)/C=C/C(C)=C\C(=O)O (racemic) [ABA, (±)-cis, trans ABA]
[1]
  production of reactive oxygen species (ROS): stimulation; also recorded: ↑ROS release
[2]
  GDP-ribosyl cyclase activity: dose-dependent stimulation
[3]
  chemokinesis: significant increase; also recorded: ↑chemokinesis
  chemotaxis (chemoattractant effect): behaves as a chemoattractant; also recorded: ↑chemotaxis

## Cn1cc(-c2ccccc2)c(=O)c(-c2cccc(C(F)(F)F)c2)c1 [Fluridone, 1-methyl-3-phenyl-5-(α,α,α-trifluoro-m-tolyl)-4-pyridone]
[4]
  toxic, mutagenic, teratogenic or cancerogenic effects: absence of toxic, mutagenic, teratogenic or cancerogenic effects
[5]
  reduction of the LPS-induced increase of intracellular ABA content: 60%
